# Source: patent publication US20260347843A1, “NERVOUS SYSTEM DELIVERY ENHANCER” (priority 2022, published 2026)
# Legend:
# [1] = tested on: Mapt mRNA; assay: Mapt mRNA expression level in the hippocampus after intraventricular administration (target gene suppression effect); assay type: in vivo, mouse; conditions: 7 days
# Method: Seven-week-old female ICR mice anesthetized with 2.5 to 4% isoflurane were fixed to a brain stereotaxic apparatus. Then, skin between the ears was cut open 2 to 3 cm anteroposteriorly, and perforated 1 mm leftward and 0.2 mm posteriorly from the bregma using a 1 mm diameter drill. A Hamilton syringe was filled with the nucleic acid agent. Through the perforated site, a needle was inserted approximately 3 mm deep. The ASO at a dose of 0.95 nmol (5 μg) per mouse was administered into the left lateral ventricle (n=4 to 7/group). The group to which ASO and TGN-073 were coadministered (hereinafter, the group is referred to as the “ASO/TGN-073 coadministration group”) means that ASO mixed with TGN-073 was administered. […]
# Next, quantitative RT-PCR was performed with TaqMan (Roche Applied Science). Primers used in quantitative RT-PCR were products designed and manufactured by Thermo Fisher Scientific Inc. (formerly known as Life Technologies Corp.) on the basis of the various numbers of genes. […] The ratio of the expression amount of Malat1 RNA to the expression amount of Actb mRNA (internal standard gene) was calculated, and a value standardized with respect to the value of the PBS-treated group was determined as a relative Malat1 RNA level. […]
# [2] = tested on: exon 23/intron 23 of dystrophin pre-mRNA; assay: Exon 23 skipping efficiency in the brain after intraventricular administration; assay type: in vivo, mouse; conditions: TGN-073 250 μg, hippocampus, striatum, cortex (any site), 7 days
# Method: The mouse used was a 6-week-old male C57BL/6J mouse having a body weight of 20 g. In the following Examples, all the experiments performed using a mouse were based on n=3. PMO (the PMO single administration group) at 2.5 nmol or 2.5 nmol PMO with 250 μg of TGN-073 added thereto (the PMO/TGN-073 coadministration group) was administered in an amount of 10 μL to the left cerebral ventricle of a mouse.
# At 1 week after the intraventricular administration, the mouse was dissected, and the hippocampus, striatum, and cortex (occipital lobe) were extirpated. Subsequently, mRNA was extracted from each tissue, using Isogen II. On the total RNA (900 ng) extracted, One-Step RT-PCR was performed using Qiagen One Step RT-PCR Kit (manufactured by Qiagen N.V.). A reaction solution was prepared in accordance with the protocol attached to the Kit. […]
# A reaction product of the above-described RT-PCR, in an amount of 1 μL, was analyzed using Bioanalyzer 2100 (manufactured by Agilent Technologies, Inc.), and using an Agilent DNA1000 kit. The number “A” of moles of the nucleotide of the band skipped by exon 23 and the number “B” of moles of the nucleotide of the band not skipped by exon 23 were measured. On the basis of the measurement values of these “A” and “B”, the skipping efficiency was determined in accordance with the following formula: skipping efficiency (%)=A/(A+B)×100. […]
# [3] = IgG antibody concentration in left hippocampus after intraventricular administration (Alexa 647 fluorescence); assay type: in vivo; conditions: coadministered with IgG antibody (10 μg/mouse), TGN-073 250 μg/mouse, 3 hours
# Method: In this Example, an Alexa 647 fluorescence-labeled IgG antibody (Goat anti-Rabbit IgG (H+L) Highly Cross-Adsorbed Secondary Antibody, Alexa Fluor (trademark)647, #A-21245, Invitrogen) alone or in combination with TGN-073 (250 μg/mouse) was administered at a dose of 10 μg/mouse to the left lateral ventricle of an 8-week-old ICR mouse (female). Hereinafter, the mice to which the IgG antibody alone was intraventricularly administered are referred to as the “IgG antibody single administration group”, and the mice to which the IgG antibody and TGN-073 were intraventricularly administered together are referred to as the “IgG/TGN-073 coadministration group”. Brain tissue samples of the left hippocampus were collected from the mice at 3 hours after the intraventricular administration. Using a fluorescence plate reader (M1000Pro, Tecan Group Ltd.), the Alexa 647 fluorescence intensity per brain weight was measured to thereby evaluate the concentration of the IgG antibody.
smiles,measurement,setting,value
"O=S(=O)(Nc1ncccc1OCc1ccccc1)c1ccccc1 [TGN-073, N-(3-benzyloxypyridin-2-yl)-benzene-sulfonamide]",Target gene (Mapt) suppression effect in the hippocampus vs ASO single administration,"[1]; Example 7, coadministered with Mapt-targeting ASO of Table 6 (9.4 nmol, 50 μg), TGN-073-mes 0.125 mg/mouse per method",marked enhancement
same,Target gene (Mapt) suppression effect in the hippocampus vs ASO single administration,"[1]; coadministered with Mapt-targeting ASO of Table 2 (9.4 nmol, 50 μg)",marked augmentation
same,Exon 23 skipping efficiency vs Chol-HDO (PMO) single administration,[2]; coadministered with Chol-HDO (PMO) (2.5 nmol),noticeable increase
same,Exon 23 skipping efficiency vs PMO single administration,[2]; coadministered with PMO (2.5 nmol),noticeable increase
same,IgG antibody concentration in the central nervous system (left hippocampus) vs IgG antibody single administration,[3],dramatic increase
